From PMC4919791, “Effect of curcumin analogs onα-synuclein aggregation and cytotoxicity” (Scientific Reports, 2016)
Entries after “also recorded” stand apart in the source; their conditions may differ.

Experiments:
[1] = target: T1, preformed α-Syn amyloid fibrils (Homo sapiens, UniProt P37840); assay: TEM of preformed α-Syn fibrils with analogs; assay type: biochemical; conditions: after 48 h incubation with analog
T1 construct: made in house; host or cells: Escherichia coli BL21
Description: The samples were then washed thrice with autoclaved MQ. The samples were then stained with 10 μl of uranyl formate 1% (w/v) and incubated in dark for 10 min. The EM image of each sample was acquired at 120 kV with magnifications in the range of 26,000X and 43,000X using a transmission electron microscope (TECNAI12 D312 FEI, Netherlands).

[2] = target: T2, preformed α-Syn fibrils (Homo sapiens, UniProt P37840); assay: LDH cytotoxicity assay of preformed α-Syn fibrils incubated with curcumin analogs; assay type: cell-based; conditions: fibrils incubated with analog 48 h; SH-SY5Y cells
T2 construct: made in house; host or cells: Escherichia coli BL21
Description: (§1) The concentration of the fibrils was determined by subtraction of supernatant concentration from the original concentration of α-Syn kept for fibrillation.
(§2) The percent LDH release was plotted as difference in the absorbance value of 490 nm and 690 nm, considering 100% release for the TritonX-100 treated cells.

[3] = target: T1, preformed α-Syn amyloid fibrils; assay: MTT assay of preformed α-Syn fibrils incubated with curcumin analogs; assay type: cell-based; conditions: fibrils incubated with analog 48 h at 37 °C; SH-SY5Y cells
Description: as §1

[4] = target: T3, α-Syn (Homo sapiens, UniProt P37840); assay: α-Syn aggregation kinetics by compound fluorescence; assay type: biochemical; conditions: in presence of analog
T3 construct: made in house; host or cells: Escherichia coli BL21
Description: ThT fluorescence was used to monitor the aggregation kinetics of α-Syn only as a control.
Subsequently, we examined the effect of these analogs on α-Syn oligomerization by time dependent static light scattering experiment. […] After aggregation, TEM study was done to determine the effects of these analogs on the morphology of the resultant aggregates.
The α-Syn amyloid aggregation was started with LMW α-Syn of concentration ~300 μM in 1.5 ml microfuge tube in 20 mM MES buffer, pH 6.0, with 0.01% NaN3. […] The microfuge tubes with protein solutions were placed into Echo-Therm model RT11 vertical rotor (Torrey Pines Scientific, USA) with a speed of 50 rpm, at 37 °C inside an incubator.
The experiments were performed in FluoroMax-4 spectrofluorometer (HORIBA JobinYvon) with excitation and emission slit widths of 5 nm. Fluorescence was done in 20 mM MES buffer (pH 6.0, 0.01% NaN3).

[5] = target: T2, preformed α-Syn fibrils; assay: Nile red binding assay on preformed α-Syn fibrils; assay type: biochemical; conditions: fibrils incubated with analog 48 h
Description: Stock solution of NR was prepared in DMSO (1 mM). […] Similar experimental protocol was used for NR binding to oligomers. FluoroMax-4 spectrofluorometer (HORIBA JobinYvon) was used with excitation and emission slit widths of 5 nm. The maximum NR fluorescence obtained at ~630 nm was used for plotting bar diagrams.

[6] = Stability of curcumin analogs by time-dependent intrinsic fluorescence; assay type: physicochemical; conditions: 20 mM MES buffer pH 6.0, 0.01% NaN3, 37 °C
Description: 1μl of this DMSO-stock solution was transferred to 2 ml microfuge tube and 1 ml of 20 mM MES buffer (pH 6.0, 0.01% NaN3) was added to it and mixed immediately by vortexing. These solutions were incubated at 37 °C and their respective fluorescence was taken at certain time intervals. The fluorescence was monitored by placing the 200 μl of the incubated solution in 0.1 cm path-length quartz cuvette (Hellma, Forest Hills, NY) and the spectra were acquired by using FluoroMax-4 spectrofluorometer (HORIBA JobinYvon) instrument with excitation and emission slit widths of 5 nm and 10 nm respectively. The fluorescence intensity maxima for each sample were plotted against time of incubation and fitted in exponential decay 1 in the Origin 8.0 software according to manufacture’s protocol (Fig. 2A).

[7] = target: T4, α-Syn fibrils (Homo sapiens, UniProt P37840); assay: LDH cytotoxicity assay of α-Syn fibrils formed in presence of curcumin analogs; assay type: cell-based; conditions: SH-SY5Y cells
T4 construct: made in house; host or cells: Escherichia coli BL21
Text: as §2

[8] = target: T5, α-Syn oligomers (Homo sapiens, UniProt P37840); assay: TEM of α-Syn oligomers with C1/C6; assay type: biochemical
T5 construct: made in house; host or cells: Escherichia coli BL21
Text: It has been shown that α-Syn mutants that form oligomers preferentially are more toxic and kill dopaminergic neurons in animal models as compared to fibril forming mutants. Therefore, compounds that effectively reduce the toxicity of oligomers could be beneficial for the treatment of PD. In the present study, we tested the effect of curcumin and its analogs on the toxicity, hydrophobic exposure and morphology of α-Syn oligomers isolated using size exclusion chromatography (SEC). The toxicity of α-Syn oligomers in presence and absence of curcumin/analogs were initially tested using MTT assay. […] To further validate the effectiveness of C6 to reduce the cytotoxicity of α-Syn oligomers, we also performed LDH cytotoxicity assay and Calcein-AM/Ethidium homodimer-1 staining. […] As previously it has been proposed that curcumin reduces the oligomers toxicity by altering their exposed hydrophobic surface, we also measured the hydrophobic surface exposure of preformed α-Syn oligomers incubated with curcumin and its analogs.
5 μl of various species of α-Syn (50 μM) incubated in absence and presence of curcumin and its analogs were spotted on carbon coated formavar grid and air dried for 10 min. The samples were then washed thrice with autoclaved MQ. The samples were then stained with 10 μl of uranyl formate 1% (w/v) and incubated in dark for 10 min. […]

[9] = target: T4, α-Syn fibrils; assay: MTT assay of α-Syn fibrils formed in presence of curcumin analogs; assay type: cell-based; conditions: 10 μM α-Syn fibril, 36 h, SH-SY5Y
Description: Next, we measured the effect of α-Syn fibrils formed in presence and absence of curcumin analogs on the viability of SH-SY5Y neuronal cell line by MTT reduction assay. SH-SY5Y cells were incubated with 10 μM α-Syn fibril formed in presence of various curcumin analogs for 36 h. […] However, the extent of decrease in toxicity was different for different analogs. […] The calcein-AM/ethidium homodimer-1 staining also further corroborated the results obtained from MTT and LDH assay (Fig. 8C).

COc1cc(/C=C/C(=O)CC(=O)/C=C/c2ccc(OCc3ccccc3)c(OC)c2)ccc1OCc1ccccc1 [C6]
fibril morphology/thickness of preformed α-Syn fibrils (TEM, words) [1]: clustering was more | effect on cell death by preformed α-Syn fibrils, LDH [2]: decrease in cell death | cell viability, MTT, preformed α-Syn fibrils incubated with analog [3]: 92.9% | effect on toxicity of preformed α-Syn fibrils, MTT [3]: reduction in toxicity | effect on rate/kinetics of α-Syn aggregation [4]: fastest; also recorded: significantly accelerated α-Syn aggregation kinetics | lag time of α-Syn aggregation ([4]; compound fluorescence, MES pH 6.0): 3.5 ± 0.5 h | Nile red fluorescence of preformed α-Syn fibrils (exposed hydrophobic surface) [5]: less NR fluorescence for fibrils as compared to curcumin | relative stability compared with curcumin (slope of normalized fluorescence versus time) [6]: relatively more stable than curcumin | toxicity of α-Syn fibrils formed in presence of analog, LDH [7]: less toxicity to cells | morphology of α-Syn oligomers (TEM) [8]: significantly altered their morphology | toxicity of α-Syn fibrils formed in presence of analog, MTT [9]: maximum cell viability; also recorded: less toxicity to cells
